# Measurements reported in patent US8147444B2, “Methods of treating or preventing peritonitis with oxidative reductive potential water solution” (Oculus Innovative Sciences, Inc., priority 2006, dated 2012).
# Read-outs that look alike come from different tables or passages of the source. Bridge positions count the residues as written; N and C are the ends. Square brackets hold non-standard residues; d marks the D form. Peptide text beside a SMILES is read from it. * marks the point of attachment. Ileψ(thiazoline)Cys = CC[C@H](C)[C@H](N)C1=N[C@H](C(=O)*)CS1; dOrn = NCCC[C@@H](N)C(=O)O
# What was measured:
# [1] = test system: murine polychromatic erythrocytes
# Procedure: The mammalian in vivo micronucleus test is used for the identification of substances which cause damage to chromosomes or the mitotic apparatus of murine polychromatic erythrocytes. This damage results in the formation of “micronuclei,” intracellular structures containing lagging chromosome fragments or isolated whole chromosomes. […] The positive control mice received a single intraperitoneal injection of cyclophosphamide (8 mg/mL, 12.5 ml/kg) on day 2. All mice were observed immediately after injection for any adverse reactions. […] On day 3, all mice were weighed and terminated.
# The femurs were excised from the terminated mice, the bone marrow was extracted, and duplicate smear preparations were performed for each mouse. The bone marrow slides for each animal were read at 40× magnification. The ratio of polychromatic erythrocytes (PCE) to normochromatic erythrocytes (NCE), an index of bone marrow toxicity, was determined for each mouse by counting a total of at least 200 erythrocytes. Then a minimum of 2000 scoreable PCE per mouse were evaluated for the incidence of micronucleated polychromatic erythrocytes. Statistical analysis of the data were done using the Mann and Whitney test (at 5% risk threshold) from a statistical software package (Statview 5.0, SAS Institute Inc., USA).
# [2] = test system: B. atropheus spores, Pseudomonas aeruginosa, and Staphylococcus aureus; experiment: Bacterial suspension assay, test organisms not told apart; type: cell-based; details: Bacitracin 33 Units/ml; over the time periods tested
# Procedure: Dermacyn is a ready to use product, therefore performing dilutions during testing was not required.
# A purchased spore suspension of B. atropheus at 2.5×10^7/ml was used for testing. In addition fresh suspensions of Pseudomonas aeruginosa, and Staphylococcus aureus were prepared and measured using a spectrophotometer to ensure the titer was acceptable
# […] of test substance was added to 100 ul of microbe suspension. The test mixture was held at 20° C. for the contact times of 20 seconds, 5 minutes, and 20 minutes. […] (entire mixture) was added to 9.0 ml of neutralizer for 20 minutes (this is the original neutralization tube or ONT) 1.0 ml of the neutralized test mixture was plated on Tryptic Soy Agar in duplicate for the 5 minute and 20 minute contact times. Additional dilutions and spread plates were used for the 20 second time point, to achieve countable plates.
# All plates were incubated at 30° C.-35° C. for a total of 3 days and were evaluated after each day of incubation.
# primary HDF cultures = details: human, 1 month, 5 µM
# [3] = test system: human diploid fibroblasts (HDFs); experiment: Cell viability, apoptosis and necrosis by flow cytometry; type: cell-based; details: 880 mM
# Procedure: HP is known to be toxic to eukaryotic cells, increasing apoptosis and necrosis and reducing cellular viability. […] HDF cultures were obtained from three different foreskins, which were pooled and cryopreserved together for the purpose of this study. Only diploid cells were used for all experiments. […] Simultaneous analyses of these parameters were performed in the same cell populations by flow cytometry using: […] B) Annexin V-FITC; and C) Propidium iodide. FIG. 4A-4C disclose percentage values expressed as mean±SD (n=3).
structure (smiles),measurement,setting,value
O=P1(N(CCCl)CCCl)NCCCO1 (centres unmarked) [cyclophosphamide],number of polychromatic erythrocytes bearing micronuclei,"[1]; females, negative control 1.0",12.6
same,PCE/NCE ratio,"[1]; females, negative control 1.02",0.73
same,number of polychromatic erythrocytes bearing micronuclei,"[1]; males, negative control 0.6",11.0
same,PCE/NCE ratio,"[1]; males, negative control 0.90",0.77
CC[C@H](C)[C@H](N)C1=N[C@H](C(=O)N[C@@H](CC(C)C)C(=O)N[C@H](CCC(=O)O)C(=O)N[C@H](C(=O)N[C@H]2CCCCNC(=O)[C@H](CC(N)=O)NC(=O)[C@@H](CC(=O)O)NC(=O)[C@H](Cc3cnc[nH]3)NC(=O)[C@@H](Cc3ccccc3)NC(=O)[C@H]([C@@H](C)CC)NC(=O)[C@@H](CCCN)NC2=O)[C@@H](C)CC)CS1 [Bacitracin] ({Ileψ(thiazoline)Cys}-L[dE]IK[dOrn]I[dF]H[dD]N; lactam 4-C),lowering of bacterial or spore populations,[2],no evidence of lowering the bacterial or spore populations
"OO [HP, hydrogen peroxide]",Cells with SA-β-Gal expression,primary HDF cultures,86%
same,"Apoptosis, cells exposing Annexin-V",[3]; 5 min,15%
same,"Apoptosis, cells exposing Annexin-V",[3]; 30 min,20%
